Measurements: the CheMixHub ionic liquid set

Experiment: xn = mol fraction of the nth substance listed

C[n+]1ccn(CCCC#N)c1.O=S(=O)([N-]S(=O)(=O)C(F)(F)F)C(F)(F)F + O=C1CCCO1
electrical conductivity [S/m], 100 kPa
Conditions | x1 = 0.1003 | x1 = 0.2005 | x1 = 0.3003 | x1 = 0.4005 | x1 = 0.4997 | x1 = 0.6003 | x1 = 0.7001 | x1 = 0.8002 | x1 = 0.9003 | x1 = 1
288.15 K | 0.668 | 0.774 | 0.578 | 0.43 | 0.309 | 0.225 | 0.151 | 0.11 | 0.077 | 0.061
293.15 K | 0.731 | 0.838 | 0.635 | 0.482 | 0.353 | 0.266 | 0.186 | 0.141 | 0.101 | 0.083
298.15 K | 0.794 | 0.908 | 0.696 | 0.54 | 0.405 | 0.312 | 0.226 | 0.176 | 0.132 | 0.112
303.15 K | 0.862 | 0.976 | 0.76 | 0.603 | 0.46 | 0.365 | 0.272 | 0.217 | 0.169 | 0.146
308.15 K | 0.933 | 1.05 | 0.827 | 0.669 | 0.522 | 0.424 | 0.324 | 0.265 | 0.212 | 0.185
313.15 K | 1.01 | 1.122 | 0.897 | 0.741 | 0.59 | 0.487 | 0.383 | 0.319 | 0.262 | 0.231
318.15 K | 1.08 | 1.2 | 0.971 | 0.817 | 0.662 | 0.556 | 0.448 | 0.379 | 0.319 | 0.285
323.15 K | 1.16 | 1.28 | 1.05 | 0.899 | 0.741 | 0.633 | 0.519 | 0.448 | 0.384 | 0.346
328.15 K | 1.242 | 1.36 | 1.128 | 0.987 | 0.825 | 0.714 | 0.599 | 0.521 | 0.455 | 0.414
333.15 K | 1.33 | 1.444 | 1.21 | 1.08 | 0.915 | 0.799 | 0.686 | 0.606 | 0.536 | 0.491
338.15 K | 1.416 | 1.532 | 1.3 | 1.18 | 1.015 | 0.896 | 0.782 | 0.695 | 0.625 | 0.575
343.15 K | 1.508 | 1.622 | 1.39 | 1.28 | 1.115 | 0.996 | 0.884 | 0.793 | 0.719 | 0.669

CC[n+]1ccn(C)c1.O=S(=O)([O-])C(F)(F)F + O=S(=O)([N-]S(=O)(=O)C(F)(F)F)C(F)(F)F.[Li+]
101 kPa, x1 = 1
Conditions | electrical conductivity [S/m]
288.15 K | 0.605
298.15 K | 0.859
333.15 K | 2.24
